Tests used:
Format in all cases: biochemical
c-Kit = c-Kit (Homo sapiens (Human), UniProt P10721); test: FRET-based Z'-Lyte kinase assay, c-kit; details: 300 μM ATP
DDR2 = DDR2 (Homo sapiens (Human), UniProt Q16832); test: LanthaScreen Eu kinase activity assay, DDR2; details: 100 nM ATP
DDR1 = DDR1 (Homo sapiens (Human), UniProt Q08345); test: LanthaScreen Eu kinase activity assay, DDR1; details: 100 nM ATP
Bcr-Abl = test: FRET-based Z'-Lyte kinase assay, Abl; details: 10 μM ATP; cells printed in μM
Sequence of Bcr-Abl (P00519 whole entry): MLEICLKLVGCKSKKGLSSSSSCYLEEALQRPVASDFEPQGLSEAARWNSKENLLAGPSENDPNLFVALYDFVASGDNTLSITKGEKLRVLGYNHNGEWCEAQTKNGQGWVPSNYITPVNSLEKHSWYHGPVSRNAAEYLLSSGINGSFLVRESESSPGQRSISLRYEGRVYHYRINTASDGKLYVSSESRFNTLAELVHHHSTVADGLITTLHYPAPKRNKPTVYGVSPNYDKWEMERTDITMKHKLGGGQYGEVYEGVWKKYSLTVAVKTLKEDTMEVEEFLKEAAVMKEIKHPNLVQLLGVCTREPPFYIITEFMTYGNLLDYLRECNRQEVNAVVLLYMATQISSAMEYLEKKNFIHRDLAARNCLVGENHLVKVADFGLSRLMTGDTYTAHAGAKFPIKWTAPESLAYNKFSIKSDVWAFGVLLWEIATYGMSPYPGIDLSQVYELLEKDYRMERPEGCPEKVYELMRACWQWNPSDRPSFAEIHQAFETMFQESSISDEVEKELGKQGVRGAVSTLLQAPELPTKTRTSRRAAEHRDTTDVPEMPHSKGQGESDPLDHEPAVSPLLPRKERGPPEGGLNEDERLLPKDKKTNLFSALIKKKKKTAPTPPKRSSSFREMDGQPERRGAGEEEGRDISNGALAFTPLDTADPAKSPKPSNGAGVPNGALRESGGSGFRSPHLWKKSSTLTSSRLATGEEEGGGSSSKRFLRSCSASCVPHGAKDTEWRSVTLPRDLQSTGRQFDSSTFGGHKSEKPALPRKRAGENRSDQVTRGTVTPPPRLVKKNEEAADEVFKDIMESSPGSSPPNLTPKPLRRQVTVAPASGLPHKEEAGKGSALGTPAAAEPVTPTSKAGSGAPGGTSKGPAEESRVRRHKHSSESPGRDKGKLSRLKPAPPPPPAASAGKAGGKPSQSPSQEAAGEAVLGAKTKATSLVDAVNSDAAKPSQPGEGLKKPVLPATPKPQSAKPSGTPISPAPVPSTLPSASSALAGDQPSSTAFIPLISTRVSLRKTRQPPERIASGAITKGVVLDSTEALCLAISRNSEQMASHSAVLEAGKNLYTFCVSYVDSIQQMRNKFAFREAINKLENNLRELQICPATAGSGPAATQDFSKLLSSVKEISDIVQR

Sequence of c-Kit (P10721 26-976): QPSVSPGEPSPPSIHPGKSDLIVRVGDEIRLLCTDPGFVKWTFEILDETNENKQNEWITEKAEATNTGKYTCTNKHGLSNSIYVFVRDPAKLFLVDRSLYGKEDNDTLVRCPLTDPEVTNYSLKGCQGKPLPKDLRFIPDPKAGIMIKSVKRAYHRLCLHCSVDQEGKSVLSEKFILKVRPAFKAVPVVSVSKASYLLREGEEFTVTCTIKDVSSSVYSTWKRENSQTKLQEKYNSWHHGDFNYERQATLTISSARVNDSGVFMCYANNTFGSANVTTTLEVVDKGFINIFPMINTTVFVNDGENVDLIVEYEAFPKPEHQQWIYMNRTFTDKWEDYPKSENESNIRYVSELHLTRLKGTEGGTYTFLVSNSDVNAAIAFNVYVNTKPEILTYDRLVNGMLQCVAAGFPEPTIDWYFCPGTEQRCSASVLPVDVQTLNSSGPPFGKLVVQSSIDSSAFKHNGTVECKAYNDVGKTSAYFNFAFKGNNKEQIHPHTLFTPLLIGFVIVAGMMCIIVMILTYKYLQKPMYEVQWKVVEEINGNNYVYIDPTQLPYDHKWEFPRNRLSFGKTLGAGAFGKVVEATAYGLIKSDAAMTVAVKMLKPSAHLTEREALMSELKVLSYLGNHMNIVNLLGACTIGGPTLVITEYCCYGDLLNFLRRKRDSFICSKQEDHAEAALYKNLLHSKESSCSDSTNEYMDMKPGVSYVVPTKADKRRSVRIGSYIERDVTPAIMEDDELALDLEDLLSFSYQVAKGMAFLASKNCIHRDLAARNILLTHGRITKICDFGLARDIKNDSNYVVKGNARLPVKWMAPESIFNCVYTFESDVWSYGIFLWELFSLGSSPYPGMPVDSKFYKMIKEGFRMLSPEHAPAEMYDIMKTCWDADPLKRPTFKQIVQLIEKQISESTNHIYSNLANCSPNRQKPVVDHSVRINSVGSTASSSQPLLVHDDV
Sequence of DDR1 (Q08345 19-913): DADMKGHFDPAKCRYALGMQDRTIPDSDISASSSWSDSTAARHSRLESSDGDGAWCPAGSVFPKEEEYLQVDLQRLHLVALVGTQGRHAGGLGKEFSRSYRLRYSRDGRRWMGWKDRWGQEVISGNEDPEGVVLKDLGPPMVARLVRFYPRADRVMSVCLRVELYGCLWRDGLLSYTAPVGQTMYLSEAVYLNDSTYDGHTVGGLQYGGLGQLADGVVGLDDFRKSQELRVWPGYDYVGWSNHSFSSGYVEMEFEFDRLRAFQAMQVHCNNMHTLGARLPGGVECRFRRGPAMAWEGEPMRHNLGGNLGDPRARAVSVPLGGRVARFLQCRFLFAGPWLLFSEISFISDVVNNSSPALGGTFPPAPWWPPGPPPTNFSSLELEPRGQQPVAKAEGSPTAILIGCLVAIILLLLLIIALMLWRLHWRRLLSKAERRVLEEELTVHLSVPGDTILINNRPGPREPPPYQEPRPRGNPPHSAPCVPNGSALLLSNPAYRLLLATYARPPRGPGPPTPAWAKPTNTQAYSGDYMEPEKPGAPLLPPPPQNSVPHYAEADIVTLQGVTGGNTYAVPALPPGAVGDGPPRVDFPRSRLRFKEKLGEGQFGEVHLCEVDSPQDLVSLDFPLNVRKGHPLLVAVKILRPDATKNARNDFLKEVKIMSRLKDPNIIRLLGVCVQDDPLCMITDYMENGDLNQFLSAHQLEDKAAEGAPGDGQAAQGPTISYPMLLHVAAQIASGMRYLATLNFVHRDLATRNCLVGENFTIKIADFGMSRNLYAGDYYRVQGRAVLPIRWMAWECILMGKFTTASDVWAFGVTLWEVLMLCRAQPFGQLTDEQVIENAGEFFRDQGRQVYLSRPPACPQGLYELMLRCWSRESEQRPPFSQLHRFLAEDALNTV
Sequence of DDR2 (Q16832 22-855): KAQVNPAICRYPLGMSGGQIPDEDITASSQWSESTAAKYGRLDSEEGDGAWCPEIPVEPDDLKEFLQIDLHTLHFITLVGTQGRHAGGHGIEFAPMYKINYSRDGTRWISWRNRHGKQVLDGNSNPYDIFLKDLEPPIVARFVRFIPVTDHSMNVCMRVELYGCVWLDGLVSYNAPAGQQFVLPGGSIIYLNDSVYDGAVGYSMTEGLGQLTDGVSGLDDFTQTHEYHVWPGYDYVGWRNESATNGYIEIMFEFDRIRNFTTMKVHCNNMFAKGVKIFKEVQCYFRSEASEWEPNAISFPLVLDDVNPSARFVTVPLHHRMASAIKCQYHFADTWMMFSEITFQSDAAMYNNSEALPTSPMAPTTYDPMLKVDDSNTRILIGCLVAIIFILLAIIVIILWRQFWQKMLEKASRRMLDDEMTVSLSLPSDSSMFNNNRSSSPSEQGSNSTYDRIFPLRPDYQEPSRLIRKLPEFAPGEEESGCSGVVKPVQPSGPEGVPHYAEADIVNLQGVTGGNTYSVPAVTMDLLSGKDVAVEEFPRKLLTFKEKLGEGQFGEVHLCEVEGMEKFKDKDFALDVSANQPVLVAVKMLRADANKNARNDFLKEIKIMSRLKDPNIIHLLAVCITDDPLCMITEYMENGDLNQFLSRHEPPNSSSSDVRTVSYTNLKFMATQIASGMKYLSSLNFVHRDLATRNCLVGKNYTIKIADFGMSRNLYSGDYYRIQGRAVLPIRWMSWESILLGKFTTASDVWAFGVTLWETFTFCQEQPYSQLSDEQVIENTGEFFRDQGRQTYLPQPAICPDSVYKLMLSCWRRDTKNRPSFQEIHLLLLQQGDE

CC1CN(c2cncnc2)Cc2cc(C(=O)Nc3cc(CN4CCN(C)CC4)cc(C(F)(F)F)c3)ccc21 (stereo not shown) [Example 1, 4-methyl-N-(3-((4-methylpiperazin-1-yl)methyl)-5-(trifluoromethyl)phenyl)-2-(pyrimidin-5-yl)-1,2,3,4-tetrahydroisoquinoline-7-carboxamide]
IC50 (c-Kit): > 10000 nM

CN1CCN(Cc2cc(NC(=O)c3ccc4c(c3)CN(c3cncnc3)CC4)cc(C(F)(F)F)c2)CC1 [Example 3, N-(3-((4-methylpiperazin-1-yl)methyl)-5-(trifluoromethyl)phenyl)-2-(pyrimidin-5-yl)-1,2,3,4-tetrahydroisoquinoline-7-carboxamide]
IC50 (c-Kit): > 10000 nM | IC50 (DDR2; cells printed in μM): 8 µM

CN1CCN(Cc2cc(NC(=O)c3ccc4c(c3)CN(c3cccnc3)CC4)cc(C(F)(F)F)c2)CC1 [Example 4, N-(3-((4-methylpiperazin-1-yl)methyl)-5-(trifluoromethyl)phenyl)-2-(pyridin-3-yl)-1,2,3,4-tetrahydroisoquinoline-7-carboxamide]
IC50 (c-Kit): > 10000 nM | IC50 (DDR2; cells printed in μM): 4.3 µM

CN1CCN(Cc2cc(NC(=O)c3ccc4c(c3)CN(c3cnc5ccccc5c3)CC4)cc(C(F)(F)F)c2)CC1 [Example 5, N-(3-((4-methylpiperazin-1-yl)methyl)-5-(trifluoromethyl)phenyl)-2-(quinolin-3-yl)-1,2,3,4-tetrahydroisoquinoline-7-carboxamide]
IC50 (c-Kit): 8700 nM

CC1CN(c2cccnc2)Cc2cc(C(=O)Nc3cc(CN4CCN(C)CC4)cc(C(F)(F)F)c3)ccc21 (stereo not shown) [Example 6, 4-methyl-N-(3-((4-methylpiperazin-1-yl)methyl)-5-(trifluoromethyl)phenyl)-2-(pyridin-3-yl)-1,2,3,4-tetrahydroisoquinoline-7-carboxamide]
IC50 (c-Kit): > 10000 nM | IC50 (DDR2; cells printed in μM): 1.2 µM

CN1CCN(Cc2cc(NC(=O)c3ccc4c(c3)CN(c3cncnc3)CC4(C)C)cc(C(F)(F)F)c2)CC1 [Example 7, 4,4-dimethyl-N-(3-((4-methylpiperazin-1-yl)methyl)-5-(trifluoromethyl)phenyl)-2-(pyrimidin-5-yl)-1,2,3,4-tetrahydroisoquinoline-7-carboxamide]
IC50 (c-Kit): > 10000 nM | IC50 (DDR1): 223 nM | IC50 (DDR2; cells printed in μM): 4.5 µM | IC50 (Bcr-Abl): > 10 µM

CC1CN(c2cncnc2)Cc2cc(C(=O)Nc3cc(CN4CCN(C)CC4)c(Cl)c(C(F)(F)F)c3)ccc21 (stereo not shown) [Example 8, N-(4-chloro-3-((4-methylpiperazin-1-yl)methyl)-5-(trifluoromethyl)phenyl)-4-methyl-2-(pyrimidin-5-yl)-1,2,3,4-tetrahydroisoquinoline-7-carboxamide]
IC50 (c-Kit): > 10000 nM | IC50 (DDR2; cells without unit): 0.915 µM

Cc1c(CN2CCN(C)CC2)cc(NC(=O)c2ccc3c(c2)CN(c2cncnc2)CC3C)cc1C(F)(F)F (stereo not shown) [Example 9, 4-methyl-N-(4-methyl-3-((4-methylpiperazin-1-yl)methyl)-5-(trifluoromethyl)phenyl)-2-(pyrimidin-5-yl)-1,2,3,4-tetrahydroisoquinoline-7-carboxamide]
IC50 (c-Kit): > 10000 nM | IC50 (DDR2; cells printed in μM): 1.1 µM

CC1CN(c2cncnc2)Cc2cc(C(=O)Nc3cc(CCN4CCN(C)CC4)cc(C(F)(F)F)c3)ccc21 (stereo not shown) [Example 10, 4-methyl-N-(3-(2-(4-methylpiperazin-1-yl)ethyl)-5-(trifluoromethyl)phenyl)-2-(pyrimidin-5-yl)-1,2,3,4-tetrahydroisoquinoline-7-carboxamide]
IC50 (c-Kit): > 10000 nM | IC50 (DDR1): 36.7 nM | IC50 (DDR2; cells without unit): 0.449 µM | IC50 (Bcr-Abl): > 10 µM

CC1CN(c2cncnc2)Cc2cc(C(=O)Nc3cc(N4CCN(C)CC4)cc(C(F)(F)F)c3)ccc21 (stereo not shown) [Example 11]
IC50 (c-Kit): > 10000 nM | IC50 (DDR1): 132 nM | IC50 (DDR2; cells printed in μM): 2.2 µM | IC50 (Bcr-Abl): > 10 µM

CC1CN(c2cncnc2)Cc2cc(C(=O)Nc3ccc(CN4CCN(C)CC4)c(C(F)(F)F)c3)ccc21 (stereo not shown) [Example 12, 4-methyl-N-(4-((4-methylpiperazin-1-yl)methyl)-3-(trifluoromethyl)phenyl)-2-(pyrimidin-5-yl)-1,2,3,4-tetrahydroisoquinoline-7-carboxamide]
IC50 (c-Kit): > 10000 nM | IC50 (DDR1): 19.9 nM | IC50 (DDR2; cells without unit): 0.334 µM

CC1CN(c2cncnc2)Cc2cc(C(=O)Nc3cccc(C(F)(F)F)c3)ccc21 (stereo not shown) [Example 13, 4-methyl-2-(pyrimidin-5-yl)-N-(3-(trifluoromethyl)phenyl)-1,2,3,4-tetrahydroisoquinoline-7-carboxamide]
IC50 (c-Kit): > 10000 nM | IC50 (DDR1): 191 nM | IC50 (DDR2; cells printed in μM): 10 µM | IC50 (Bcr-Abl): > 10 µM

CC1CN(c2cncnc2)Cc2cc(C(=O)Nc3cc(CN4CCCN(C)CC4)cc(C(F)(F)F)c3)ccc21 (stereo not shown) [Example 14, 4-methyl-N-(3-((4-methyl-1,4-diazepan-1-yl)methyl)-5-(trifluoromethyl)phenyl)-2-(pyrimidin-5-yl)-1,2,3,4-tetrahydroisoquinoline-7-carboxamide]
IC50 (c-Kit): > 10000 nM | IC50 (DDR1): 25.6 nM | IC50 (DDR2; cells without unit): 0.604 µM | IC50 (Bcr-Abl): > 10 µM

CCc1cc(CN2CCN(C)CC2)cc(NC(=O)c2ccc3c(c2)CN(c2cncnc2)CC3C)c1 (stereo not shown) [Example 15, N-(3-ethyl-5-((4-methylpiperazin-1-yl)methyl)phenyl)-4-methyl-2-(pyrimidin-5-yl)-1,2,3,4-tetrahydroisoquinoline-7-carboxamide]
IC50 (c-Kit): > 10000 nM | IC50 (DDR1): 50.5 nM | IC50 (DDR2; cells printed in μM): 1.4 µM | IC50 (Bcr-Abl): > 10 µM

CC1CN(c2cncnc2)Cc2cc(C(=O)Nc3cc(CN(C)CCN(C)C)cc(C(F)(F)F)c3)ccc21 (stereo not shown) [Example 23, N-(3-(((2-(dimethylamino)ethyl)(methyl)amino)methyl)-5-(trifluoromethyl)phenyl)-4-methyl-2-(pyrimidin-5-yl)-1,2,3,4-tetrahydroisoquinoline-7-carboxamide]
IC50 (c-Kit): > 10000 nM | IC50 (DDR2; cells printed in μM): 1.2 µM

CC1CN(c2cncnc2)Cc2cc(C(=O)Nc3cc(CN4CC[C@@H](N(C)C)C4)cc(C(F)(F)F)c3)ccc21 (stereo partly drawn) [Example 24, N-(3-(((R)-3-(dimethylamino)pyrrolidin-1-yl)methyl)-5-(trifluoromethyl)phenyl)-4-methyl-2-(pyrimidin-5-yl)-1,2,3,4-tetrahydroisoquinoline-7-carboxamide]
IC50 (c-Kit): > 10000 nM | IC50 (DDR2; cells without unit): 0.672 µM

CC1CN(c2cncnc2)Cc2cc(C(=O)Nc3cc(CN4CC[C@H](N(C)C)C4)cc(C(F)(F)F)c3)ccc21 (stereo partly drawn) [Example 25, N-(3-(((S)-3-(dimethylamino)pyrrolidin-1-yl)methyl)-5-(trifluoromethyl)phenyl)-4-methyl-2-(pyrimidin-5-yl)-1,2,3,4-tetrahydroisoquinoline-7-carboxamide]
IC50 (c-Kit): > 10000 nM | IC50 (DDR2; cells without unit): 0.862 µM

CC1CN(c2cncnc2)Cc2cc(C(=O)Nc3cc(CN4CCN(C)CC4)c(F)c(C(F)(F)F)c3)ccc21 (stereo not shown) [Example 27, N-(4-fluoro-3-((4-methylpiperazin-1-yl)methyl)-5-(trifluoromethyl)phenyl)-4-methyl-2-(pyrimidin-5-yl)-1,2,3,4-tetrahydroisoquinoline-7-carboxamide]
IC50 (c-Kit): > 10000 nM | IC50 (DDR2; cells printed in μM): 1.4 µM

CC1CN(c2cncnc2)Cc2cc(C(=O)Nc3cc(CN4CCN(C)CC4)cc(C(C)(C)C)c3)ccc21 (stereo not shown) [Example 28, N-(3-tert-butyl-5-((4-methylpiperazin-1-yl)methyl)phenyl)-4-methyl-2-(pyrimidin-5-yl)-1,2,3,4-tetrahydroisoquinoline-7-carboxamide]
IC50 (c-Kit): > 10000 nM | IC50 (DDR1): 66.6 nM | IC50 (DDR2; cells without unit): 0.94 µM

CC1CN(c2cncnc2)Cc2cc(C(=O)Nc3cc(CN4CCN(C)CC4)cc(-c4ccccc4)c3)ccc21 (stereo not shown) [Example 29, 4-methyl-N-(5-((4-methylpiperazin-1-yl)methyl)biphenyl-3-yl)-2-(pyrimidin-5-yl)-1,2,3,4-tetrahydroisoquinoline-7-carboxamide]
IC50 (c-Kit): > 10000 nM | IC50 (DDR1): 44.6 nM | IC50 (DDR2; cells printed in μM): 1.4 µM

CC1CN(c2cncnc2)Cc2cc(C(=O)Nc3cc(CN4CCN(C)CC4)cc(C4CC4)c3)ccc21 (stereo not shown) [Example 31, N-(3-cyclopropyl-5-((4-methylpiperazin-1-yl)methyl)phenyl)-4-methyl-2-(pyrimidin-5-yl)-1,2,3,4-tetrahydroisoquinoline-7-carboxamide]
IC50 (c-Kit): > 10000 nM | IC50 (DDR1): 89 nM | IC50 (DDR2; cells printed in μM): 1.1 µM

CC1CN(c2cncnc2)Cc2cc(C(=O)Nc3cc(CN4CCN(C)CC4)cc(C4CCCC4)c3)ccc21 (stereo not shown) [Example 32, N-(3-cyclopentyl-5-((4-methylpiperazin-1-yl)methyl)phenyl)-4-methyl-2-(pyrimidin-5-yl)-1,2,3,4-tetrahydroisoquinoline-7-carboxamide]
IC50 (c-Kit): > 10000 nM | IC50 (DDR2; cells without unit): 0.306 µM

CCC1CN(c2cncnc2)Cc2cc(C(=O)Nc3cc(CN4CCN(C)CC4)cc(C(F)(F)F)c3)ccc21 (stereo not shown) [Example 34, 4-ethyl-N-(3-((4-methylpiperazin-1-yl)methyl)-5-(trifluoromethyl)phenyl)-2-(pyrimidin-5-yl)-1,2,3,4-tetrahydroisoquinoline-7-carboxamide]
IC50 (c-Kit): > 10000 nM | IC50 (DDR2; cells printed in μM): 2 µM

CN1CCN(Cc2cc(C(=O)Nc3ccc4c(c3)CN(c3cncnc3)CC4)cc(C(F)(F)F)c2)CC1 [Example 36, 3-((4-methylpiperazin-1-yl)methyl)-N-(2-(pyrimidin-5-yl)-1,2,3,4-tetrahydroisoquinolin-7-yl)-5-(trifluoromethyl)benzamide]
IC50 (c-Kit): > 10000 nM | IC50 (DDR2; cells printed in μM): 7.8 µM

C[C@@H]1CN(c2cncnc2)Cc2cc(C(=O)Nc3cc(CN4CCN(C)CC4)cc(C(F)(F)F)c3)ccc21 [Example 37, (S)-4-methyl-N-(3-((4-methylpiperazin-1-yl)methyl)-5-(trifluoromethyl)phenyl)-2-(pyrimidin-5-yl)-1,2,3,4-tetrahydroisoquinoline-7-carboxamide]
IC50 (c-Kit): > 10000 nM

C[C@H]1CN(c2cncnc2)Cc2cc(C(=O)Nc3cc(CN4CCN(C)CC4)cc(C(F)(F)F)c3)ccc21 [Example 38, (R)-4-methyl-N-(3-((4-methylpiperazin-1-yl)methyl)-5-(trifluoromethyl)phenyl)-2-(pyrimidin-5-yl)-1,2,3,4-tetrahydroisoquinoline-7-carboxamide]
IC50 (c-Kit): > 10000 nM
